Experimental findings from PMC5218480 (PLoS ONE, 2017) are described below.

This assay has as its system MV-4-11 cells. Description: Gene expression microarray analysis (Affymetrix PrimeView) and GSEA. The assay is classed as cell-based, human. On the set-up: RFU PODN (11730768_x_at) / Fold change /veh PODN (11730768_x_at) / RFU LINC00158 (11744669_a_at) / Fold change /veh LINC00158 (11744669_a_at) / RFU DUSP10 (11751237_a_at) / Fold change /veh DUSP10 (11751237_a_at) / RFU ID3 (11757404_x_at) / Fold change /veh ID3 (11757404_x_at) / RFU PLEKHG5 (11737974_s_at) / Fold change /veh PLEKHG5 (11737974_s_at) / RFU LRRC4B (11730491_at) / Fold change /veh LRRC4B (11730491_at) / RFU GIMAP4 (11747438_a_at) / Fold change /veh GIMAP4 (11747438_a_at) / RFU KRT8 (11758183_x_at) / Fold change /veh KRT8 (11758183_x_at) / RFU CNN1 (11734310_a_at) / Fold change /veh CNN1 (11734310_a_at) / RFU VPS37D (11726825_at) / Fold change /veh VPS37D (11726825_at) / RFU C10orf10 (11716522_x_at) / Fold change /veh C10orf10 (11716522_x_at) / RFU KIR2DL2 /// KIR2DL4 /// KIR2DL5A /// KIR2DL5B /// KIR2DS1 /// KIR2DS2 /// KIR2DS3 /// KIR2DS4 /// KIR3DL3 /// KIR3DL3 /// KIR3DS1 (11738374_at) / Fold change /veh KIR2DL2 /// KIR2DL4 /// KIR2DL5A /// KIR2DL5B /// KIR2DS1 /// KIR2DS2 /// KIR2DS3 /// KIR2DS4 /// KIR3DL3 /// KIR3DL3 /// KIR3DS1 (11738374_at) / RFU C1QL1 (11718748_at) / Fold change /veh C1QL1 (11718748_at) / RFU TMPRSS4 (11747572_a_at) / Fold change /veh TMPRSS4 (11747572_a_at) / RFU HAMP (11756126_x_at) / Fold change /veh HAMP (11756126_x_at) / RFU RNFT2 (11725882_a_at) / Fold change /veh RNFT2 (11725882_a_at) / RFU NR4A2 (11747474_a_at) / Fold change /veh NR4A2 (11747474_a_at) / RFU ABCC12 (11746883_a_at) / Fold change /veh ABCC12 (11746883_a_at) / RFU TMEM136 (11760407_x_at) / Fold change /veh TMEM136 (11760407_x_at) / RFU CLDN22 /// WWC2 (11732394_at) / Fold change /veh CLDN22 /// WWC2 (11732394_at) / RFU HLA-DPB1 (11760878_x_at) / Fold change /veh HLA-DPB1 (11760878_x_at) / RFU SPINT1 (11716480_a_at) / Fold change /veh SPINT1 (11716480_a_at) / RFU GAP43 (11754022_s_at) / Fold change /veh GAP43 (11754022_s_at) / RFU A4GNT (11735810_at) / Fold change /veh A4GNT (11735810_at) / RFU PRB3 (11715151_x_at) / Fold change /veh PRB3 (11715151_x_at) / RFU TUBB4B (11761932_at) / Fold change /veh TUBB4B (11761932_at) / RFU CAPN14 (11732068_a_at) / Fold change /veh CAPN14 (11732068_a_at) / RFU TMCC2 (11721928_a_at) / Fold change /veh TMCC2 (11721928_a_at) / RFU IRGQ (11745062_a_at) / Fold change /veh IRGQ (11745062_a_at) / RFU FAM174B (11720279_a_at) / Fold change /veh FAM174B (11720279_a_at) / RFU TMPRSS4 (11748680_a_at) / Fold change /veh TMPRSS4 (11748680_a_at) / RFU FAM212B (11763350_a_at) / Fold change /veh FAM212B (11763350_a_at) / RFU PLEKHG5 (11743358_a_at) / Fold change /veh PLEKHG5 (11743358_a_at) / RFU ZSCAN30 (11745921_a_at) / Fold change /veh ZSCAN30 (11745921_a_at) / RFU CMKLR1 (11741424_a_at) / Fold change /veh CMKLR1 (11741424_a_at) / RFU LOC101060620 /// MAPK8IP1 (11723275_at) / Fold change /veh LOC101060620 /// MAPK8IP1 (11723275_at) / RFU SPTSSB (11747773_x_at) / Fold change /veh SPTSSB (11747773_x_at) / RFU PRSS12 (11739890_at) / Fold change /veh PRSS12 (11739890_at) / RFU BIN1 (11741810_x_at) / Fold change /veh BIN1 (11741810_x_at) / RFU WNT11 (11732464_a_at) / Fold change /veh WNT11 (11732464_a_at) / RFU C10orf10 (11716521_a_at) / Fold change /veh C10orf10 (11716521_a_at) / RFU C5orf56 (11738089_at) / Fold change /veh C5orf56 (11738089_at) / RFU CYB561 (11721691_x_at) / Fold change /veh CYB561 (11721691_x_at) / RFU ANKRD19P (11752326_a_at) / Fold change /veh ANKRD19P (11752326_a_at) / RFU OR2T12 /// OR2T33 /// OR2T8 (11738714_s_at) / Fold change /veh OR2T12 /// OR2T33 /// OR2T8 (11738714_s_at) / RFU VCAN (11748164_a_at) / Fold change /veh VCAN (11748164_a_at) / RFU JSRP1 (11732532_at) / Fold change /veh JSRP1 (11732532_at) / RFU KRTAP10-11 (11738290_x_at) / Fold change /veh KRTAP10-11 (11738290_x_at) / RFU MYO3A (11730013_a_at) / Fold change /veh MYO3A (11730013_a_at) / RFU EBF3 (11725865_a_at) / Fold change /veh EBF3 (11725865_a_at) / RFU CAMK2N1 (11719241_x_at) / Fold change /veh CAMK2N1 (11719241_x_at) / RFU C5orf56 (11738088_a_at) / Fold change /veh C5orf56 (11738088_a_at) / RFU OLFML3 (11715873_a_at) / Fold change /veh OLFML3 (11715873_a_at) / RFU LOC100653217 /// NTM (11731650_a_at) / Fold change /veh LOC100653217 /// NTM (11731650_a_at) / RFU MAPK11 (11762145_a_at) / Fold change /veh MAPK11 (11762145_a_at) / RFU FIZ1 (11724087_x_at) / Fold change /veh FIZ1 (11724087_x_at) / RFU OASL (11726364_x_at) / Fold change /veh OASL (11726364_x_at) / RFU SOX15 (11748057_x_at) / Fold change /veh SOX15 (11748057_x_at) / RFU CD79A (11719716_a_at) / Fold change /veh CD79A (11719716_a_at) / RFU HIST1H1D (11736915_at) / Fold change /veh HIST1H1D (11736915_at) / RFU CASKIN2 (11723855_a_at) / Fold change /veh CASKIN2 (11723855_a_at) / RFU LOC730098 (11760151_x_at) / Fold change /veh LOC730098 (11760151_x_at) / RFU OR4N2 (11742367_at) / Fold change /veh OR4N2 (11742367_at) / RFU PRRT2 (11749266_a_at) / Fold change /veh PRRT2 (11749266_a_at) / RFU SNX32 (11753110_a_at) / Fold change /veh SNX32 (11753110_a_at) / RFU CDHR5 (11726645_a_at) / Fold change /veh CDHR5 (11726645_a_at) / RFU RCAN1 (11760418_a_at) / Fold change /veh RCAN1 (11760418_a_at) / RFU FAM167A (11723789_a_at) / Fold change /veh FAM167A (11723789_a_at) / RFU FAM26E (11764081_at) / Fold change /veh FAM26E (11764081_at) / RFU ISYNA1 (11749810_s_at) / Fold change /veh ISYNA1 (11749810_s_at) / RFU ACY1 (11761880_at) / Fold change /veh ACY1 (11761880_at) / RFU 11764098_at / Fold change /veh 11764098_at / RFU SAMD14 (11745864_x_at) / Fold change /veh SAMD14 (11745864_x_at) / RFU NPB (11741838_a_at) / Fold change /veh NPB (11741838_a_at) / RFU TMPRSS6 (11731388_a_at) / Fold change /veh TMPRSS6 (11731388_a_at) / RFU KRTAP10-2 (11738614_at) / Fold change /veh KRTAP10-2 (11738614_at) / RFU ARHGAP8 /// PRR5-ARHGAP8 (11727945_x_at) / Fold change /veh ARHGAP8 /// PRR5-ARHGAP8 (11727945_x_at) / RFU KRTAP5-7 /// NADSYN1 (11734609_at) / Fold change /veh KRTAP5-7 /// NADSYN1 (11734609_at) / RFU RASL12 (11751679_a_at) / Fold change /veh RASL12 (11751679_a_at) / RFU CDKN2B (11736163_a_at) / Fold change /veh CDKN2B (11736163_a_at) / RFU PRF1 (11729649_at) / Fold change /veh PRF1 (11729649_at) / RFU, ZNF638 /// ZNF638-IT1 / Fold change vs veh, ZNF638 /// ZNF638-IT1 / RFU, PANK3 / Fold change vs veh, PANK3 / RFU, SH3YL1 / Fold change vs veh, SH3YL1 / RFU, ZEB2 / Fold change vs veh, ZEB2 / RFU, NRIP1 / Fold change vs veh, NRIP1 / RFU, PTTG1IP / Fold change vs veh, PTTG1IP / RFU, CAPN2 / Fold change vs veh, CAPN2 / RFU, MED14 / Fold change vs veh, MED14 / RFU, SNORA58 / Fold change vs veh, SNORA58 / RFU, C1orf63 / Fold change vs veh, C1orf63 / RFU, LRRFIP1 / Fold change vs veh, LRRFIP1 / RFU, NDUFAF7 / Fold change vs veh, NDUFAF7 / RFU, SLC12A2 / Fold change vs veh, SLC12A2 / RFU, IBTK / Fold change vs veh, IBTK / RFU, ESF1 / Fold change vs veh, ESF1 / Fold change vs veh, TMEM50B / RFU, TAOK1 / Fold change vs veh, TAOK1 / RFU, ACBD3 / Fold change vs veh, ACBD3 / RFU, TMA16 / Fold change vs veh, TMA16 / RFU, RWDD3 / Fold change vs veh, RWDD3 / RFU, BCAT1 / Fold change vs veh, BCAT1 / RFU, EDEM3 / Fold change vs veh, EDEM3 / RFU, TMEM33 / Fold change vs veh, TMEM33 / RFU, WDR75 / Fold change vs veh, WDR75 / RFU, AHCTF1 / Fold change vs veh, AHCTF1 / RFU, TFRC / Fold change vs veh, TFRC / RFU, ZDHHC17 / Fold change vs veh, ZDHHC17 / RFU, NOM1 / Fold change vs veh, NOM1 / RFU, ARL8B / Fold change vs veh, ARL8B / RFU, ZBTB11 / Fold change vs veh, ZBTB11 / RFU, TAMM41 / Fold change vs veh, TAMM41 / RFU, KIAA1704 /// LOC100996395 / Fold change vs veh, KIAA1704 /// LOC100996395 / RFU, ING1 / Fold change vs veh, ING1 / RFU, TRMT61B / Fold change vs veh, TRMT61B / RFU, FUBP3 / Fold change vs veh, FUBP3 / RFU, TP53 / Fold change vs veh, TP53 / RFU, TNKS2 / Fold change vs veh, TNKS2 / RFU, ZFP14 / Fold change vs veh, ZFP14 / RFU, ACTR2 / Fold change vs veh, ACTR2 / RFU, PPP3R1 / Fold change vs veh, PPP3R1 / RFU, PIK3R1 / Fold change vs veh, PIK3R1 / RFU, HNRNPA1 / Fold change vs veh, HNRNPA1 / RFU, RNF170 / Fold change vs veh, RNF170 / RFU, ZNF28 / Fold change vs veh, ZNF28 / RFU, RNGTT / Fold change vs veh, RNGTT / RFU, OGT / Fold change vs veh, OGT / RFU, BRD1 / Fold change vs veh, BRD1 / RFU, MARS / Fold change vs veh, MARS / RFU, ZNF655 / Fold change vs veh, ZNF655 / RFU, FAHD1 / Fold change vs veh, FAHD1 / RFU, BDP1 / Fold change vs veh, BDP1 / RFU, LRRCC1 / Fold change vs veh, LRRCC1 / RFU, ARID1A / Fold change vs veh, ARID1A / RFU, ZNF146 / Fold change vs veh, ZNF146 / RFU, ZNF330 / Fold change vs veh, ZNF330 / RFU, GPN3 / Fold change vs veh, GPN3 / RFU, C9orf123 / Fold change vs veh, C9orf123 / RFU, N4BP2L2 / Fold change vs veh, N4BP2L2 / RFU, ARFIP1 / Fold change vs veh, ARFIP1 / RFU, FAM179B / Fold change vs veh, FAM179B / RFU, BCL10 / Fold change vs veh, BCL10 / RFU, UHRF1BP1L / Fold change vs veh, UHRF1BP1L / RFU, BET1 / Fold change vs veh, BET1 / RFU, CNOT2 / Fold change vs veh, CNOT2 / RFU, ZNF268 / Fold change vs veh, ZNF268 / Fold change vs veh, ZNF507 / RFU, DGCR2 / Fold change vs veh, DGCR2 / RFU, WDSUB1 / Fold change vs veh, WDSUB1 / Fold change vs veh, HSP90B1 /// MIR3652 / RFU, ADSS / Fold change vs veh, ADSS / RFU, GK / Fold change vs veh, GK / RFU, ZNF148 / Fold change vs veh, ZNF148 / RFU, TAF9 / Fold change vs veh, TAF9 / RFU, SLC1A5 / Fold change vs veh, SLC1A5 / RFU, SLMO2 / Fold change vs veh, SLMO2 / RFU, ABCC4 / Fold change vs veh, ABCC4 / RFU, LOC101060439 /// RAP1B / Fold change vs veh, LOC101060439 /// RAP1B / RFU, RFX7 / Fold change vs veh, RFX7 / RFU, GTPBP10 / Fold change vs veh, GTPBP10 / RFU, CNEP1R1 / Fold change vs veh, CNEP1R1 / RFU, BIVM-ERCC5 /// ERCC5 / Fold change vs veh, BIVM-ERCC5 /// ERCC5 / RFU, ILF3 / Fold change vs veh, ILF3 / RFU 11762660_at / Fold change /veh 11762660_at / RFU VCAN (11757783_s_at) / Fold change /veh VCAN (11757783_s_at) / RFU DDX43 (11728927_at) / Fold change /veh DDX43 (11728927_at) / RFU KRT8 (11758188_x_at) / Fold change /veh KRT8 (11758188_x_at) / RFU NKD1 (11759106_at) / Fold change /veh NKD1 (11759106_at) / RFU SRD5A1 (11742802_a_at) / Fold change /veh SRD5A1 (11742802_a_at) / RFU TPSAB1 /// TPSB2 (11721975_s_at) / Fold change /veh TPSAB1 /// TPSB2 (11721975_s_at) / RFU GSTM3 (11746129_a_at) / Fold change /veh GSTM3 (11746129_a_at) / RFU IL23R (11737362_x_at) / Fold change /veh IL23R (11737362_x_at) / RFU TMEM51 (11727254_a_at) / Fold change /veh TMEM51 (11727254_a_at) / RFU PIWIL2 (11732686_x_at) / Fold change /veh PIWIL2 (11732686_x_at) / RFU ORM1 (11744905_x_at) / Fold change /veh ORM1 (11744905_x_at) / RFU CCDC152 (11743942_at) / Fold change /veh CCDC152 (11743942_at) / RFU ECM1 (11717891_a_at) / Fold change /veh ECM1 (11717891_a_at) / RFU IL23R (11748794_a_at) / Fold change /veh IL23R (11748794_a_at) / RFU TNFAIP8L3 (11732012_x_at) / Fold change /veh TNFAIP8L3 (11732012_x_at) / RFU MBOAT4 (11741988_at) / Fold change /veh MBOAT4 (11741988_at) / RFU 11764193_at / Fold change /veh 11764193_at / RFU TMEM53 (11763286_at) / Fold change /veh TMEM53 (11763286_at) / RFU MAGEB2 (11727129_at) / Fold change /veh MAGEB2 (11727129_at) / RFU TMEM200A (11744735_a_at) / Fold change /veh TMEM200A (11744735_a_at) / RFU CCDC152 (11751479_a_at) / Fold change /veh CCDC152 (11751479_a_at) / RFU FAM211A (11726209_a_at) / Fold change /veh FAM211A (11726209_a_at) / RFU RGS16 (11746705_a_at) / Fold change /veh RGS16 (11746705_a_at) / RFU VCAN (11755009_s_at) / Fold change /veh VCAN (11755009_s_at) / RFU RHOB (11743442_s_at) / Fold change /veh RHOB (11743442_s_at) / RFU RGS16 (11720943_a_at) / Fold change /veh RGS16 (11720943_a_at) / RFU RGS16 (11720944_at) / Fold change /veh RGS16 (11720944_at) / RFU, VPS4B / Fold change vs veh, VPS4B / RFU, CREB1 / Fold change vs veh, CREB1 / RFU, DNAJC13 / Fold change vs veh, DNAJC13 / RFU, GNAQ / Fold change vs veh, GNAQ / RFU, CDK5R1 / Fold change vs veh, CDK5R1 / RFU, ZRANB3 / Fold change vs veh, ZRANB3 / RFU, CUL4A / Fold change vs veh, CUL4A / RFU, CCNY / Fold change vs veh, CCNY / RFU, UFL1 / Fold change vs veh, UFL1 / RFU, COG3 / Fold change vs veh, COG3 / RFU, DIAPH2 / Fold change vs veh, DIAPH2 / RFU, SKA2 / Fold change vs veh, SKA2 / RFU, AFF3 / Fold change vs veh, AFF3 / RFU, LMF1 / Fold change vs veh, LMF1 / RFU, IPO11 / Fold change vs veh, IPO11 / RFU, DFFB / Fold change vs veh, DFFB / RFU, FOXP1 / Fold change vs veh, FOXP1 / RFU, CARD8 / Fold change vs veh, CARD8 / RFU, STRN3 / Fold change vs veh, STRN3 / RFU, ADK / Fold change vs veh, ADK / RFU, RASSF2 / Fold change vs veh, RASSF2 / RFU, WIPF1 / Fold change vs veh, WIPF1 / RFU, LARP1B / Fold change vs veh, LARP1B / RFU, RASA1 / Fold change vs veh, RASA1 / RFU, RB1 / Fold change vs veh, RB1 / RFU, PPFIA1 / Fold change vs veh, PPFIA1 / RFU, MAT2A / Fold change vs veh, MAT2A / RFU, CCT5 / Fold change vs veh, CCT5 / RFU, WDR92 / Fold change vs veh, WDR92 / RFU, CUX1 / Fold change vs veh, CUX1 / RFU, TTC7A / Fold change vs veh, TTC7A / RFU, TMEM135 / Fold change vs veh, TMEM135 / RFU, DEPTOR / Fold change vs veh, DEPTOR / RFU, CPM / Fold change vs veh, CPM / RFU, DNAJB6 / Fold change vs veh, DNAJB6 / RFU, CACNA2D3 / Fold change vs veh, CACNA2D3 / RFU, DTX4 / Fold change vs veh, DTX4 / RFU, TFCP2 / Fold change vs veh, TFCP2 / RFU, GMCL1 /// GMCL1P1 / Fold change vs veh, GMCL1 /// GMCL1P1 / RFU, AEBP2 / Fold change vs veh, AEBP2 / RFU, SNHG1 /// SNORD22 /// SNORD25 /// SNORD26 /// SNORD27 /// SNORD28 /// SNORD29 /// SNORD31 / Fold change vs veh, SNHG1 /// SNORD22 /// SNORD25 /// SNORD26 /// SNORD27 /// SNORD28 /// SNORD29 /// SNORD31 / Fold change (Aza/veh), C12orf56 (ProbeSet 11735607_a_at) / Fold change (ACY-1035/veh), C12orf56 (ProbeSet 11735607_a_at) / Fold change (Aza/veh), FGFR1OP (ProbeSet 11751329_s_at) / Fold change (ACY-1035/veh), FGFR1OP (ProbeSet 11751329_s_at) / Fold change (Aza/veh), VPS36 (ProbeSet 11739960_a_at) / Fold change (ACY-1035/veh), VPS36 (ProbeSet 11739960_a_at) / RFU SYPL1 (11715823_x_at) / Fold change /veh SYPL1 (11715823_x_at) / RFU IGFBP7 (11715501_s_at) / Fold change /veh IGFBP7 (11715501_s_at) / RFU REEP3 (11722064_at) / Fold change /veh REEP3 (11722064_at) / RFU IGLL1 (11728026_x_at) / Fold change /veh IGLL1 (11728026_x_at): dose or concentration left out as unconfirmed. To be noted: ProbeSet 11753616_s_at; LIST B.

For `Nc1ncn([C@@H]2O[C@H](CO)[C@@H](O)[C@H]2O)c(=O)n1` [azacitidine], the “RFU, ARL8B” value amounted to 221.87 RFU.
